Measurements: ChEMBL document CHEMBL2401618 (Eur J Med Chem, 2013)

How the values were obtained:
Plasmodium falciparum [1] = assay: Antiplasmodial activity against chloroquine-resistant Plasmodium falciparum FcB1/Columbia infected in human erythrocytes assessed as parasite growth inhibition at 10 ug/ml after 24 hrs by [3H]-hypoxanthine incorporation assay relative to control; format: functional; conditions: read-out: GI
[2] = test system: Trypanosoma brucei brucei; assay: Antitrypanosomal activity against bloodstream stage of Trypanosoma brucei brucei 93 assessed as parasite growth inhibition at 10 ug/ml after 72 hrs by resazurin reduction assay relative to control; format: functional; conditions: Trypanosoma brucei, 93, 72 h; read-out: GI
[3] = test system: Trypanosoma brucei brucei; assay: Antitrypanosomal activity against bloodstream stage of Trypanosoma brucei brucei 93 assessed as parasite growth inhibition at 1 ug/ml after 72 hrs by resazurin reduction assay relative to control; format: functional; conditions: Trypanosoma brucei, 93, 72 h; read-out: GI
Plasmodium falciparum [4] = assay: Antiplasmodial activity against chloroquine-resistant Plasmodium falciparum FcB1/Columbia infected in human erythrocytes assessed as parasite growth inhibition at 50 ug/ml after 24 hrs by [3H]-hypoxanthine incorporation assay relative to control; format: functional; conditions: read-out: GI
Plasmodium falciparum [5] = assay: Antiplasmodial activity against chloroquine-resistant Plasmodium falciparum FcB1/Columbia infected in human erythrocytes assessed as parasite growth inhibition at 1 ug/ml after 24 hrs by [3H]-hypoxanthine incorporation assay relative to control; format: functional; conditions: read-out: GI
[6] = test system: Trypanosoma brucei brucei; assay: Antitrypanosomal activity against bloodstream stage of Trypanosoma brucei brucei 93 assessed as parasite growth inhibition at 50 ug/ml after 72 hrs by resazurin reduction assay relative to control; format: functional; conditions: Trypanosoma brucei, 93, 72 h; read-out: GI
Leishmania donovani = assay: Leishmanicidal activity against promastigote stage of Leishmania donovani LV9 assessed as cell viability by MTT assay; format: functional, organism-based

Compound	inhibition of growth at 10 µg/mL (Plasmodium falciparum [1]) [%]	inhibition of growth at 10 µg/mL [2] [%]	inhibition of growth at 1 µg/mL [3] [%]	inhibition of growth at 50 µg/mL (Plasmodium falciparum [4]) [%]	inhibition of growth at 1 µg/mL (Plasmodium falciparum [5]) [%]	inhibition of growth at 50 µg/mL [6] [%]	IC50 (Leishmania donovani) [µM]
COCOc1ccc(C(=O)C2=C(O)[C@]3(CC=C(C)C)C[C@H](CC=C(C)C)[C@@](C)(CCC=C(C)C)[C@](CC=C(C)C)(C2=O)C3=O)cc1OCOC	20.9	95.5	6.82	99.5	7.94	93.2	23.3
COc1ccc([N+](=O)[O-])cc1COc1ccc(C(=O)C2=C(O)[C@]3(CC=C(C)C)C[C@H](CC=C(C)C)[C@@](C)(CCC=C(C)C)[C@](CC=C(C)C)(C2=O)C3=O)cc1OCc1cc([N+](=O)[O-])ccc1OC	20.1	51.9	9.11	79.1	13.7	93	> 100
CC(C)=CCC[C@]1(C)[C@@H](CC=C(C)C)C[C@]2(CC=C(C)C)C(=O)[C@@]1(CC=C(C)C)C(=O)C(C(=O)c1ccc(OC(=O)C=C(C)C)c(OC(=O)C=C(C)C)c1)=C2O	31.6	92	10.5	94.9	3.6	96.1	28.9
CC(C)=CCC[C@]1(C)[C@@H](CC=C(C)C)C[C@]2(CC=C(C)C)C(=O)[C@@]1(CC=C(C)C)C(=O)C(C(=O)c1ccc(OCCC3OCCO3)c(O)c1)=C2O [14-O-2-ETHYL-1,3-DIOXOLANE-GUTTIFERONE A]	49.1	96.4	8.18	99.6	15.3	94.9	22.2
COc1ccc([N+](=O)[O-])cc1COc1ccc(C(=O)C2=C(O)[C@]3(CC=C(C)C)C[C@H](CC=C(C)C)[C@@](C)(CCC=C(C)C)[C@](CC=C(C)C)(C2=O)C3=O)cc1O [14-O-2-METHOXY-5-NITROBENZYL-GUTTIFERONE A]	14.6	88.9	8.4	97.4	6.06	96.1	> 100
C=CCOc1ccc(C(=O)C2=C(O)[C@]3(CC=C(C)C)C[C@H](CC=C(C)C)[C@@](C)(CCC=C(C)C)[C@](CC=C(C)C)(C2=O)C3=O)cc1O [14-O-ALLYL-GUTTIFERONE A]	11	95.1	20.3	99.5	0.83	92.6	15.7
CC(C)=CCC[C@]1(C)[C@@H](CC=C(C)C)C[C@]2(CC=C(C)C)C(=O)[C@@]1(CC=C(C)C)C(=O)C(C(=O)c1ccc(OCc3ccccc3)c(O)c1)=C2O [14-O-BENZYL-GUTTIFERONE A]	49	96	23.6	99.1	16.1	95	22.4
CCOc1ccc(C(=O)C2=C(O)[C@]3(CC=C(C)C)C[C@H](CC=C(C)C)[C@@](C)(CCC=C(C)C)[C@](CC=C(C)C)(C2=O)C3=O)cc1O [14-O-ETHYL-GUTTIFERONE A]	28.2	94.7	15.8	99.7	14.9	93	16.2
CC(C)=CCC[C@]1(C)[C@@H](CC=C(C)C)C[C@]2(CC=C(C)C)C(=O)[C@@]1(CC=C(C)C)C(=O)C(C(=O)c1ccc(OC(C)C)c(O)c1)=C2O [14-O-ISOPROPYL-GUTTIFERONE A]	25.6	95.7	15.4	99.8	14.7	94.4	18
